Patent US8158656B2, “2-indolinone derivatives as multi-target protein kinase inhibitors and histone deacetylase inhibitors” (Shenzhen Chipscreen Biosciences Ltd., priority 2008, dated 2012)

Tests used:
MDA-MB-231 = test: Tumor cell proliferation (MTS), MDA-MB-231; assay type: cell-based; conditions: Homo sapiens, MDA-MB-231, 72 hours
Protocol: (§1) Measurement of in vivo cell proliferation:
(§2) Tumor cells were trypsinized and plated into 96-well plates at 3,000 per well and incubated in complete medium with 10% FBS for 24 hours. Compounds were added over a final concentration range of 100 μmol/L to 100 nmol/L in 0.1% DMSO and incubated for 72 hours in complete medium. The effects on proliferation were determined by addition of MTS reagent (Promega) according to the instruction, incubation for 2 hours at 37° C. in CO2 incubator, and record the absorbance at 490 nm using an ELISA plate reader.

A549 = test: Tumor cell proliferation (MTS), A549; assay type: cell-based; conditions: Homo sapiens, A549, 72 hours
Protocol: as §1, §2

U937 = test: Tumor cell proliferation (MTS), U937; assay type: cell-based; conditions: Homo sapiens, U-937, U937, 72 hours
Protocol: as §1, §2

HDAC3 = biological target: T1, HDAC3 (Homo sapiens, UniProt O15379); test: GDF11 reporter assay in HeLa cells; assay type: cell-based; conditions: for HDAC3 (GDF11 reporter assay) % Max Resp of CS055 at 3 μM: relative to CS055 at 3 μM
T1 construct: endogenous in cells; host or cells: HeLa
T1 sequence (O15379 whole entry): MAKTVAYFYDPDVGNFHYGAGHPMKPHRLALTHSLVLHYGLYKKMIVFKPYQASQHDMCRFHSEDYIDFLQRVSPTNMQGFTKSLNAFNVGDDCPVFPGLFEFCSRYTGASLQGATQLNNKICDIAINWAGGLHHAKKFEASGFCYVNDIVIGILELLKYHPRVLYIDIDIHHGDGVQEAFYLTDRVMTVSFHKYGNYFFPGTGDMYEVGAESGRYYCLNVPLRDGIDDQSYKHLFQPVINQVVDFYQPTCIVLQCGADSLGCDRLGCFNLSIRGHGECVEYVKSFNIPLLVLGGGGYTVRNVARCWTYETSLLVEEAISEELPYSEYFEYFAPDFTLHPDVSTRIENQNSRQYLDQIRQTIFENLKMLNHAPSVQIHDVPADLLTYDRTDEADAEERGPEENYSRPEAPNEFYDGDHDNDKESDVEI
T1 sequence (Q9Y618 whole entry partner): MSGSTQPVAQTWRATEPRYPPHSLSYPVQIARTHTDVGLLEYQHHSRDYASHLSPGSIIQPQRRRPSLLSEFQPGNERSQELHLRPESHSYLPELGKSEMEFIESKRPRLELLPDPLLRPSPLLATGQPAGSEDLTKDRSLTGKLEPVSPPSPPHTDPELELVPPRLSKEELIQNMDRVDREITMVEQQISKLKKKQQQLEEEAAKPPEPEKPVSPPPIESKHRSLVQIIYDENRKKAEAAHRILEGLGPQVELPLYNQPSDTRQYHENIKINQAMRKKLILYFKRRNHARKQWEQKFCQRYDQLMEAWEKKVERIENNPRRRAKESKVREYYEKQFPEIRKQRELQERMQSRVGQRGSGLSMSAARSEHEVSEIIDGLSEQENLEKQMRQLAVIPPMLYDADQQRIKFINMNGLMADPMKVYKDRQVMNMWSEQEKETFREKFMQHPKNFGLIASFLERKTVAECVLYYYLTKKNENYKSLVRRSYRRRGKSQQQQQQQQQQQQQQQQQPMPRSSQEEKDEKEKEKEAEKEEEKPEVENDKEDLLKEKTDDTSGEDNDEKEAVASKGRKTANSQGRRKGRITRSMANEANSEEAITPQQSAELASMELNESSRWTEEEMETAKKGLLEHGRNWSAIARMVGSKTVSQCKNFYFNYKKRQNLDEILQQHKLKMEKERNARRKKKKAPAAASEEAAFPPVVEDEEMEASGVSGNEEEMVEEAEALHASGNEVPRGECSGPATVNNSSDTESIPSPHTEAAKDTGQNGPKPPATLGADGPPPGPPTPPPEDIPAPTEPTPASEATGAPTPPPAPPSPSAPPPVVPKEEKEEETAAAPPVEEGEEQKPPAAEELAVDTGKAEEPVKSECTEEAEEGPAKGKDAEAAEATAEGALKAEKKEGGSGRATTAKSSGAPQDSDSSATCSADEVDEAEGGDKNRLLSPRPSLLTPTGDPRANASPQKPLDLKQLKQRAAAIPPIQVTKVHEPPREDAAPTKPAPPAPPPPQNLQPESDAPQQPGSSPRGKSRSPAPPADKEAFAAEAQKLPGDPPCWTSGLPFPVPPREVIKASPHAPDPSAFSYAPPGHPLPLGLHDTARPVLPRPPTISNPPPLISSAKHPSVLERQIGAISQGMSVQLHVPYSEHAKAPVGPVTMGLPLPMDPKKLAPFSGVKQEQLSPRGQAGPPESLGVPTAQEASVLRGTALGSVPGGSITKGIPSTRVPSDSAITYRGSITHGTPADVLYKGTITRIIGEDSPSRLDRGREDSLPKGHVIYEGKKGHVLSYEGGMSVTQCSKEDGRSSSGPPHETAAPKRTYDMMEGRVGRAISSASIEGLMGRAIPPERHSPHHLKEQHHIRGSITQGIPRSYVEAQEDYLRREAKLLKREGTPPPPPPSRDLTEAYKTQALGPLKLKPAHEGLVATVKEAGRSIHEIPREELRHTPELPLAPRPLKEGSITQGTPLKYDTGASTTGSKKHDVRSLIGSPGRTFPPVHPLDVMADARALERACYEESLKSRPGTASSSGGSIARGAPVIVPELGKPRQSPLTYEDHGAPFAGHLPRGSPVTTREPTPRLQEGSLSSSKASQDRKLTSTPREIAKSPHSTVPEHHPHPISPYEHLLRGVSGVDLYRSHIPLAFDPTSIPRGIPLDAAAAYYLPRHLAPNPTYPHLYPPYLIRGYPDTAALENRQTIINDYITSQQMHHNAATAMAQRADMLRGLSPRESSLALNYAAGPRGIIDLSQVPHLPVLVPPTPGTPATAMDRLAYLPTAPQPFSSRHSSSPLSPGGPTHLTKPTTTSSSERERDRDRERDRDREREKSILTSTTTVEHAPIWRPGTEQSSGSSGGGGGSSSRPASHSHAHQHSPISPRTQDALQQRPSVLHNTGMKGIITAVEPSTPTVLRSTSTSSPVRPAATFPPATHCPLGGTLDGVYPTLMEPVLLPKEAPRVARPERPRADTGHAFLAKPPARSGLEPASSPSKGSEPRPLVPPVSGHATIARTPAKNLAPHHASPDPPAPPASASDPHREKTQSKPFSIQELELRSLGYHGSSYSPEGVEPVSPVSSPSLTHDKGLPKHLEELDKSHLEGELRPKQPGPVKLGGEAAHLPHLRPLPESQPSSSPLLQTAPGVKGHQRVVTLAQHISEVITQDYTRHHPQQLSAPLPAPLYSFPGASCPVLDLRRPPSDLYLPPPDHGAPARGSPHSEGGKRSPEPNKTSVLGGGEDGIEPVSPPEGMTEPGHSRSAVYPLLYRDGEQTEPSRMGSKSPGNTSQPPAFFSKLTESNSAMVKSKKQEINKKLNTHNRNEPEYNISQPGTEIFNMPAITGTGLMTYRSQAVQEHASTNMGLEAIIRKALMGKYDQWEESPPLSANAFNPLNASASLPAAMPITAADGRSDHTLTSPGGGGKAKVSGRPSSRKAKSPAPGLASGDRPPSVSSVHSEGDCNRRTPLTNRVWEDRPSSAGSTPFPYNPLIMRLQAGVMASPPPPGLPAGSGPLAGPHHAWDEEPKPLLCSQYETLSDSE
Protocol: (§3) HDAC subtype selectivity inhibition assay of tested compounds was carried out by several reporter gene assays experiments. Briefly, HeLa cells were seeded in 96-well plates the day before transfection to give a confluence of 50-80%. Cells were transfected with one of reporter gene plasmid containing a promoter sequence or response element upstream of a luciferase gene construct using FuGene6 transfection reagent according to the manufacturer's instruction (Roche). The promoters or response elements including p21-promoter, gdf11-promoter, MEF-binding element (MEF2), Nur77-promoter were fused upstream to the luciferase gene reporter construct. For normalizing the transfection efficiency, a GFP expression plasmid was cotransfected. Cells were allowed to express protein for 24 hours followed by addition of individual compounds or the vehicle (DMSO). 24 hours later the cells were harvested, and the luciferase assay and GFP assay were performed using corresponding assay kits according to the manufacturer's instructions (Promega).

Raji = test: Tumor cell proliferation (MTS), Raji; assay type: cell-based; conditions: Homo sapiens, 72 hours
Protocol: as §1, §2

VEGFR2 = VEGFR2 (Homo sapiens, UniProt P35968); test: VEGF receptor kinase ELISA bioassay; assay type: biochemical; conditions: ELISA kinase assay, 200 μM ATP
Sequence of VEGFR2 (P35968 807-1356): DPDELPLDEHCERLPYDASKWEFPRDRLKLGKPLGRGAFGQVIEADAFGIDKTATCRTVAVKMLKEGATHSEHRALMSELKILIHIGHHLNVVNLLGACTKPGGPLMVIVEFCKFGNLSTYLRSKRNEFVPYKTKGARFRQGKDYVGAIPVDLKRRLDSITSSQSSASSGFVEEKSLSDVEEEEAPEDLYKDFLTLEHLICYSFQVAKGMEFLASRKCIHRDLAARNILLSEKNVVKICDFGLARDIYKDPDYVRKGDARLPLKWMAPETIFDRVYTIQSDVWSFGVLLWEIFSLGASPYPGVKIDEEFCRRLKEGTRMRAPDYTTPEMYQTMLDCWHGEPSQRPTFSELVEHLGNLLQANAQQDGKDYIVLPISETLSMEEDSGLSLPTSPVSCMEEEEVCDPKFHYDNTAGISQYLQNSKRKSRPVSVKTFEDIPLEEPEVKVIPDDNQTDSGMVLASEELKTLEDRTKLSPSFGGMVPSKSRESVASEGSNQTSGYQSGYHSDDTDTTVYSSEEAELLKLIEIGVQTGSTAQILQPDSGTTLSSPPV

HDAC7 = biological target: T2, HDAC7 (Homo sapiens, UniProt Q8WUI4); test: Nur77 reporter assay in HeLa cells; assay type: cell-based; conditions: for HDAC7 (Nur77 reporter assay) % Max Resp of CS055 at 3 μM: relative to CS055 at 3 μM
T2 construct: endogenous in cells; host or cells: HeLa
T2 sequence (Q8WUI4 1-952): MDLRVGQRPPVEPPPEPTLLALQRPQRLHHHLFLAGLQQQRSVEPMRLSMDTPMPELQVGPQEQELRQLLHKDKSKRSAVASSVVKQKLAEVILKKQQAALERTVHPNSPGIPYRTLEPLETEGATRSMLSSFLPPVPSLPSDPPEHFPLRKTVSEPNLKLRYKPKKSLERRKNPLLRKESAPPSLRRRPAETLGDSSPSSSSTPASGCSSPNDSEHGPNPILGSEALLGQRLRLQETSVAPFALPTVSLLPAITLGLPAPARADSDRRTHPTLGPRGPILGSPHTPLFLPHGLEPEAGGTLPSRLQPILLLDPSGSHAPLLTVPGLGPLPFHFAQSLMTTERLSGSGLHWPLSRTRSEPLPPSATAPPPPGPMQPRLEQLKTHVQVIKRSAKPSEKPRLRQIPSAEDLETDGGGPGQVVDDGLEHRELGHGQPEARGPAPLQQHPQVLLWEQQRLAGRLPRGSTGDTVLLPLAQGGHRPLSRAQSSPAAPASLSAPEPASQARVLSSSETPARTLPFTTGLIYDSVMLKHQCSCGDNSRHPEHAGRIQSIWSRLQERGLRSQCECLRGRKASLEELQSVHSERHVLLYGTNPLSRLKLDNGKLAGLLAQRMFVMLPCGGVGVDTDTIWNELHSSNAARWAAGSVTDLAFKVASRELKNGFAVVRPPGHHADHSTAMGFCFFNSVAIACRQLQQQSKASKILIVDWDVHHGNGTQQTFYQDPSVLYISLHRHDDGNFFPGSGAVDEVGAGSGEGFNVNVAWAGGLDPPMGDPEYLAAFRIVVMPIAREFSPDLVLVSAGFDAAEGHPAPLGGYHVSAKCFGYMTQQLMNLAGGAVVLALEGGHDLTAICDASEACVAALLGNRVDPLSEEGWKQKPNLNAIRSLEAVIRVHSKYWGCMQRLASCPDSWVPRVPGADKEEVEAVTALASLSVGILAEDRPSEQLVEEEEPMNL
Protocol: as §3

PDGFRβ NIH-3T3 cells = test: PDGF ligand-dependent cell proliferation; assay type: cell-based; conditions: Mus musculus, NIH3T3; NIH-3T3 expressing human PDGFRβ, PDGF BB 50 ng/ml, 72 hours, MTS
Protocol: Measurement of in vivo inhibition on receptor ligand-dependent cell proliferation: PDGF dependent cell proliferation:
NIH-3T3 mouse fibroblasts cell line engineered to stably express human PDGFRβ was constructed and used to evaluate PDGF dependent cell proliferation. PDGFRβ NIH-3T3 cells were plated into 96-well plates at 5,000 per well and incubated with serum-free medium for 24 hours. Compounds and PDGF BB (50 ng/ml) were added and incubated for 72 hours in serum-free medium. The effects on proliferation were determined by addition of MTS reagent (Promega) according to the instruction, incubation for 2 hours at 37° C. in CO2 incubator, and record the absorbance at 490 nm using an ELISA plate reader.

total HDAC enzyme = test: Total HDAC enzyme activity, HDAC Fluorimetric Assay (HeLa extract); assay type: biochemical, human
Protocol: Measurement of in vitro inhibition of total HDAC enzyme activity:
The in vitro inhibition of total HDAC enzyme was determined by HDAC Fluorimetric Assay/Drug Discovery Kit (BIOMOL) according to manufacture's instruction. • 1. Add Assay buffer, diluted trichostatin A or test inhibitor to appropriate wells of the microtiter plate. Following table lists examples of various assay types and the additions required for each test.
• 2. Add diluted HeLa extract or other HDAC sample to all wells except those that are to be “No Enzyme Controls” (Blank). • 3. Allow diluted Fluor de Lys™ Substrate and the samples in the microtiter plate to equilibrate to assay temperature (25° C.). • 4. Initiate HDAC reactions by adding diluted substrate (25 μl) to each well and mixing thoroughly. • 5. Allow HDAC reactions to proceed for desired length of time and then stop them by addition of Fluor de Lys™ Developer (50 μl). Incubate plate at room temperature (25° C.) for 10-15 min. • 6. Read samples in a microtiter-plate reading fluorimeter capable of excitation at a wavelength in the range 350-380 nm and detection of emitted light in the range 440-460 nm. Measurement of in vivo inhibition of HDAC subtype activity: […]

| GI50 (MDA-MB-231) | GI50 (A549) | GI50 (U937) | HDAC3 (GDF11 reporter assay) % Max Resp of CS055 at 3 μM (HDAC3) | GI50 (Raji) | IC50 (VEGFR2) | HDAC7 (Nur77 reporter assay) % Max Resp of CS055 at 3 μM (HDAC7) | % inhibition of total HDAC enzyme activity at 30 μM (total HDAC enzyme) | EC50 (HDAC3; 24 hours) | EC50 (HDAC7; 24 hours) | SMILES | GI50 (PDGFRβ NIH-3T3 cells) |
| --- | --- | --- | --- | --- | --- | --- | --- | --- | --- | --- | --- |
| > 60 µM | > 60 µM | > 60 µM | 3.8% | > 60 µM | > 1000 nM | 3.5% | 4.00% | – | – | Cc1[nH]c(/C=N/N=C2\C(=O)Nc3ccc(F)cc32)c(C)c1C(=O)NCCCNc1ccc(C(=O)Nc2ccc(F)cc2N)cn1 [Example 17, N-(2-amino-4-fluorophenyl)-6-(3-(2-(((5-fluoro-2-oxoindolin-3-ylidene)-hydrazono)methyl)-3,5-dimethyl-1H-pyrrole-4-carboxamido)propylamino)nicotinamide] | > 1000 nM |
| > 60 µM | > 60 µM | > 60 µM | 4.1% | > 60 µM | > 1000 nM | 1.0% | 3.50% | – | – | Cc1[nH]c(/C=N/N=C2\C(=O)Nc3ccc(F)cc32)c(C)c1C(=O)NCCCCNc1ccc(C(=O)Nc2ccc(F)cc2N)cn1 [Example 20, N-(2-amino-4-fluorophenyl)-6-(4-(2-(((5-fluoro-2-oxoindolin-3-ylidene)-hydrazono)methyl)-3,5-dimethyl-1H-pyrrole-4-carboxamido)butylamino)nicotinamide] | > 1000 nM |
| > 60 µM | > 60 µM | > 60 µM | 2.0% | > 60 µM | 157 nM | 6.0% | 7.30% | – | – | Cc1[nH]c(/C=C2\C(=O)Nc3ccc(F)cc32)c(C)c1C(=O)NCCCCNc1ccc(C(=O)Nc2ccc(F)cc2N)cn1 [Example 19, (Z)-N-(2-amino-4-fluorophenyl)-6-(4-(2-((5-fluoro-2-oxoindolin-3-ylidene)-methyl)-3,5-dimethyl-1H-pyrrole-4-carboxamido)butylamino)nicotinamide] | > 1000 nM |
| > 60 µM | > 60 µM | > 60 µM | 1.8% | > 60 µM | 43 nM | 6.4% | −2.60% | – | – | Cc1[nH]c(/C=C2\C(=O)Nc3ccc(F)cc32)c(C)c1C(=O)NCCNc1ccc(C(=O)Nc2ccc(F)cc2N)cn1 [Example 13, (Z)-N-(2-amino-4-fluorophenyl)-6-(2-(2-((5-fluoro-2-oxoindolin-3-ylidene)-methyl)-3,5-dimethyl-1H-pyrrole-4-carboxamido)ethylamino)nicotinamide] | > 1000 nM |
| > 60 µM | > 60 µM | > 60 µM | 106.2% | 3.45 µM | 11 nM | 113.5% | 9.20% | 1.9 µM | 2.9 µM | Cc1[nH]c(/C=C2\C(=O)Nc3ccc(F)cc32)c(C)c1C(=O)NCCNc1ccc(C(=O)Nc2ccccc2N)cn1 [Example 3, (Z)-N-(2-aminophenyl)-6-(2-(2-((5-fluoro-2-oxoindolin-3-ylidene)methyl)-3,5-dimethyl-1H-pyrrole-4-carboxamido)ethylamino)nicotinamide] | > 1000 nM |
| > 60 µM | > 60 µM | > 60 µM | 2.0% | > 60 µM | 324 nM | 4.5% | 1.00% | – | – | Cc1[nH]c(/C=N/N=C2\C(=O)Nc3ccc(F)cc32)c(C)c1C(=O)NCCNc1ccc(C(=O)Nc2ccc(F)cc2N)cn1 [Example 14, N-(2-amino-4-fluorophenyl)-6-(2-(2-(((5-fluoro-2-oxoindolin-3-ylidene)-hydrazono)methyl)-3,5-dimethyl-1H-pyrrole-4-carboxamido)ethylamino)nicotinamide] | > 1000 nM |
| > 60 µM | > 60 µM | > 60 µM | 1.8% | > 60 µM | 72 nM | 6.5% | 6.70% | – | – | Cc1[nH]c(/C=C2\C(=O)Nc3ccc(F)cc32)c(C)c1C(=O)NCCCNc1ccc(C(=O)Nc2ccc(F)cc2N)cn1 [Example 16, (Z)-N-(2-amino-4-fluorophenyl)-6-(3-(2-((5-fluoro-2-oxoindolin-3-ylidene)-methyl)-3,5-dimethyl-1H-pyrrole-4-carboxamido)propylamino)nicotinamide] | > 1000 nM |
| > 60 µM | > 60 µM | > 60 µM | 6.3% | > 60 µM | 634 nM | 12.4% | 7.80% | – | – | Cc1[nH]c(/C=N/N=C2\C(=O)Nc3ccc(F)cc32)c(C)c1C(=O)NCCCNc1ccc(C(=O)Nc2ccccc2N)cn1 [Example 7, N-(2-aminophenyl)-6-(3-(2-(((5-fluoro-2-oxoindolin-3-ylidene)hydrazono)-methyl)-3,5-dimethyl-1H-pyrrole-4-carboxamido)propylamino)nicotinamide] | > 1000 nM |
